Assay results: US8871463B2, “Method for screening a glutamate release inhibitor in an astrocyte” (Korea Institute of Science and Technology, priority 2012, dated 2014)
Entries after “also recorded” stand apart in the source; their conditions may differ. Where two headings read alike, the source gives them in different places.

Columns and labels:
[1] = system: primary cultured astrocyte; type: cell-based, mouse
astrocyte [2] = test: Fura-2 Ca2+ imaging of astrocyte during sniffer patch; type: cell-based, mouse; settings: for TFLLR-induced astrocytic Ca2+ transient: TFLLR 500 μM, 100 ms
Procedure: On the day of sniffer-patch, cultured astrocytes (HEK cells added) were incubated with 5 μM Fura-2 AM (mixed with 5 μl of 20% Pluronic acid) (Invitrogen) for 40 min and washed at room temperature, and subsequently transferred to a microscope stage for imaging. External solution contained (in mM): 150 NaCl, 10 Hepes, 3 KCl, 2 CaCl2, 2 MgCl2, 5.5 glucose, pH adjusted to pH 7.3 and osmolarity to 325 mOsmol kg^−1. Intensity images of 510 nm wavelength were taken at 340 nm and 380 nm excitation wavelengths using either iXon EMCCD (DV887 DCS-BV, ANDOR technology). Two resulting images were used for ratio calculations in Axon Imaging Workbench version 6.2 (Axon Instruments). GluR1LY-mediated currents were recorded from HEK cells expressing GluR1L497Y under voltage clamp (Vh=−70 mV) using Multiclamp 700B amplifier (Molecular Devices), acquired with pClamp 9.2. Recording electrodes […] were filled with (mM): 110 Cs-Gluconate, 30 CsCl, 0.5 CaCl2, 10 Hepes, 4 Mg-ATP, 0.3 Na3-GTP and 10 BAPTA (pH adjusted to 7.3 with CsOH and osmolarity adjusted to 290-310 mOsm/kg with sucrose). For simultaneous recording, Imaging Workbench was synchronized with pClamp 9.2.

astrocyte [3] = type: cell-based, mouse
GluR1-L497Y = GluR1-L497Y (Homo sapiens, UniProt P42261, L497Y); type: cell-based
Sequence of GluR1-L497Y (P42261 19-906 L497Y limits assumed): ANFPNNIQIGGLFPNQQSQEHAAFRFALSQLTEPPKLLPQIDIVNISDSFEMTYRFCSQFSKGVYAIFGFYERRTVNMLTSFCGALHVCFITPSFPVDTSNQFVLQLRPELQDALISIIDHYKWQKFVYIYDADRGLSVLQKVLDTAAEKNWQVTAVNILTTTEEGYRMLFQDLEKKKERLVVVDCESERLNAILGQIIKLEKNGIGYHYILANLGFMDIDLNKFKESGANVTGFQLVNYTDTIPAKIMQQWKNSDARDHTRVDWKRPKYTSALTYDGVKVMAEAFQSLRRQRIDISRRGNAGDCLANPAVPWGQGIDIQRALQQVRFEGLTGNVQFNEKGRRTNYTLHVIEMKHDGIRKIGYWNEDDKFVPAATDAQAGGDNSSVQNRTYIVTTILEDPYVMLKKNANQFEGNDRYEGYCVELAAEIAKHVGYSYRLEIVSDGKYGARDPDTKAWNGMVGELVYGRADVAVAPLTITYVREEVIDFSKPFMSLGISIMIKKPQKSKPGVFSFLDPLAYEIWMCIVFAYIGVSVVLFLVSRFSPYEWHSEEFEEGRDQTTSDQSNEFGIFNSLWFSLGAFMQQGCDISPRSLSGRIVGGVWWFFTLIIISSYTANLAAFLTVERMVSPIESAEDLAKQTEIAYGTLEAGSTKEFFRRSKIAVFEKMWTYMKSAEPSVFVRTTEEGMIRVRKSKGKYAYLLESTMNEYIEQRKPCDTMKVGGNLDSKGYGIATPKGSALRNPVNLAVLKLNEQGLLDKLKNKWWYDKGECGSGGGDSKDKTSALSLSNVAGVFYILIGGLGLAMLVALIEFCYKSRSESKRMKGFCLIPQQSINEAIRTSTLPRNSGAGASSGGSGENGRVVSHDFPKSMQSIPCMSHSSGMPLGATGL

CCCCC1(C2CCCC2)Cc2cc(OCCCC(=O)O)c(Cl)c(Cl)c2C1=O (centres unmarked) [DCPIB, 4-(2-butyl-6,7-dichloro-2-cyclopentylindan-1-on-5-yl)oxybutyric acid]
fast and slow-modes of TFLLR-induced glutamate release (TFLLR-induced GluR1L497Y-mediated current) [1]: did not show any significant effect

O=S(=O)(O)c1cc(N=C=S)ccc1C=Cc1ccc(N=C=S)cc1S(=O)(=O)O [DIDS, 4,4′-Diisothiocyano-2,2′-stilbenedisulfonic acid]
fast and slow-modes of TFLLR-induced glutamate release (TFLLR-induced GluR1L497Y-mediated current) [1]: inhibit; also recorded: blocked

C-terminus of Phosducin: C-terminus of mouse phosducin (251-278 a.a., SEQ ID NO: 6), over-expressed; inhibits Gαi-Gβγ dissociation
fast-mode of TFLLR-induced glutamate release [1]: almost completely inhibited; also recorded: inhibition of the fast-mode
TFLLR-induced astrocytic Ca2+ transient (astrocyte [2]): without affecting
TFLLR-induced astrocytic Ca2+ transient (astrocyte [2]; listed as Phosducin C-terminal fragment): do not inhibit

O=C(O)c1cc([N+](=O)[O-])ccc1NCCCc1ccccc1 [NPPB, 5-Nitro-2-(3-phenylpropylamino)benzoic Acid]
fast and slow-modes of TFLLR-induced glutamate release (TFLLR-induced GluR1L497Y-mediated current) [1]: blocked

[Ba+2] [Ba^2+]
fast and slow-modes of TFLLR-induced glutamate release (TFLLR-induced GluR1L497Y-mediated current) [1]: did not show any significant effect

CCCCC/C=C\C/C=C\C/C=C\C/C=C\CCCC(=O)NCCCl [ACEA, N-(2-Chloroethyl)-5Z,8Z,11Z,14Z-eicosatetraenamide]
astrocytic Ca2+ increase induced by the agent itself (astrocyte [2]): without a measurable Ca^2+ increase
fast-mode of glutamate release induced by the agent itself (astrocyte [3]): induces mainly fast-mode; also recorded: activated a fast-mode; also recorded: induce fast-mode
slow-mode of glutamate release induced by the agent itself (astrocyte [3]): without a measurable Ca^2+ increase or a slow-mode

TFLLR-NH2
time from TFLLR to slow peak ([1]; n=31): 32.8 ± 2.6 s
time from TFLLR to Ca2+ peak (astrocyte [2]; n=31): 10.8 ± 0.7 s
GluR1-mediated current induced in sensor HEK cell without astrocyte (GluR1-L497Y): does not induce

CC1(C)[C@@H](OC(=O)CCC(=O)O)CC[C@]2(C)[C@H]3C(=O)C=C4[C@@H]5C[C@@](C)(C(=O)O)CC[C@]5(C)CC[C@@]4(C)[C@]3(C)CC[C@@H]12 [CBX, Carbenoxolone]
fast and slow-modes of TFLLR-induced glutamate release (TFLLR-induced GluR1L497Y-mediated current) [1]: does not inhibit; also recorded: did not show any significant effect

C/C=C/[C@H]1O[C@@](O)([C@@H](C)[C@H](O)[C@H](C)[C@H]2OC(=O)/C(OC)=C/C(C)=C/[C@@H](C)[C@@H](O)[C@@H](CC)[C@@H](O)[C@H](C)C/C(C)=C/C=C/[C@@H]2OC)C[C@@H](O[C@H]2C[C@@H](O)[C@H](OC(N)=O)[C@@H](C)O2)[C@@H]1C [Concanamycin A]
fast and slow-modes of TFLLR-induced glutamate release (TFLLR-induced GluR1L497Y-mediated current) [1]: appeared to block
1 mM glutamate-induced GluR1L497Y-mediated current of sensor cell (GluR1-L497Y): reduced
surface expression of GluR1-L497Y in the sensor cell (GluR1-L497Y): almost completely eliminated

C=C[C@H]1C[N@@]2CC[C@H]1C[C@H]2[C@H](O)c1ccnc2ccc(OC)cc12 [quinine]
fast and slow-modes of TFLLR-induced glutamate release (TFLLR-induced GluR1L497Y-mediated current) [1]: inhibit; also recorded: blocked

[Cs+] [Cs^+]
fast and slow-modes of TFLLR-induced glutamate release (TFLLR-induced GluR1L497Y-mediated current) [1]: did not show any significant effect

OC[C@H]1O[C@@H](n2cnc3c(NC4CCCC4)nc(Cl)nc32)[C@H](O)[C@@H]1O [CCPA, 2-chloro-N(6)-cyclopentyladenosine]
astrocytic Ca2+ increase induced by the agent itself (astrocyte [2]; pressure-applied 100 ms): does not induce; also recorded: without a measurable Ca^2+ increase
fast-mode of glutamate release induced by the agent itself (astrocyte [3]): induces mainly fast GluR1-mediated inward current; also recorded: activated a fast-mode; also recorded: induce fast-mode
slow-mode of glutamate release induced by the agent itself (astrocyte [3]): without a measurable Ca^2+ increase or a slow-mode

N#Cc1cc2c(cc1[N+](=O)[O-])=NC(=O)C(=O)N=2 [CNQX, 6-cyano-7-nitroquinoxaline-2,3-dione]
fast and slow-modes of TFLLR-induced glutamate release (TFLLR-induced GluR1L497Y-mediated current) [1]: blocked
fast-mode of TFLLR-induced glutamate release [1]: blocked
slow-mode of TFLLR-induced glutamate release [1]: blocked

NCC(CC(=O)O)c1ccc(Cl)cc1 (centres unmarked) [Baclofen]
astrocytic Ca2+ increase induced by the agent itself (astrocyte [2]; pressure-applied 100 ms): without a Ca^2+ transient
astrocytic Ca2+ increase induced by the agent itself (astrocyte [2]; pressure-applied 100 ms, listed as baclofen): without a measurable Ca^2+ increase
fast-mode of glutamate release induced by the agent itself (astrocyte [3]): activated a fast-mode; also recorded: induces fast-mode
slow-mode of glutamate release induced by the agent itself (astrocyte [3]): without a measurable Ca^2+ increase or a slow-mode

β-ARK-c term: C-terminus of Beta-adrenergic receptor kinase (SEQ ID NO: 5), over-expressed; inhibits Gβγ dissociation (WKKELRDAYREAQQLVQRVPKMKNKPRSVQRVPKMKNKPRS; B-Ark(Beta-adrenergic receptor kinase) C-terminus)
TFLLR-induced astrocytic Ca2+ transient (astrocyte [2]): do not inhibit
TFLLR-induced astrocytic Ca2+ transient (astrocyte [2]; listed as […]-ARK): without affecting

CC[N+](CC)(CC)CC [TEA]
fast and slow-modes of TFLLR-induced glutamate release (TFLLR-induced GluR1L497Y-mediated current) [1]: did not show any significant effect

O=C(O)c1cccnc1Nc1cccc(C(F)(F)F)c1 [NFA, Niflumic acid]
fast and slow-modes of TFLLR-induced glutamate release (TFLLR-induced GluR1L497Y-mediated current) [1]: inhibit; also recorded: blocked
1 mM glutamate-induced GluR1L497Y-mediated current of sensor cell (GluR1-L497Y): does not affect

CC(=O)OCOC(=O)CN(CC(=O)OCOC(C)=O)c1ccccc1OCCOc1ccccc1N(CC(=O)OCOC(C)=O)CC(=O)OCOC(C)=O [BAPTA-AM, 1,2-bis-(o-inophenoxy)ethane-N,N,N′,N′-tetraacetic Acid Tetra-(acetoxymethyl) Ester]
slow-mode of TFLLR-induced glutamate release [1]: significantly reduced
TFLLR-induced astrocytic Ca2+ transient (astrocyte [2]): completely block; also recorded: eliminated

CC(C)Cn1c(=O)n(C)c(=O)c2[nH]cnc21 [IBMX, 3-isobutyl-1-methylxanthine]
fast-mode of TFLLR-induced glutamate release [1]: does not affect

B1: RGS-2: Regulatory G protein signaling 2, over-expressed; selectively inhibits the Gq subunit (protein, UniProt P41220 1-211, looked up)
Regulator of G-protein …: MQSAMFLAVQHDCRPMDKSAGSGHKSEEKREKMKRTLLKDWKTRLSYFLQNSSTPGKPKTGKKSKQQAFIKPSPEEAQLWSEAFDELLASKYGLAAFRAFLKSEFCEENIEFWLACEDFKKTKSPQKLSSKARKIYTDFIEKEAPKEINIDFQTKTLIAQNIQEATSGCFTTAQKRVYSLMENNSYPRFLESEFYQDLCKKPQITTEPHAT
TFLLR-induced astrocytic Ca2+ transient (astrocyte [2]): greatly and significantly reduced; also recorded: selectively and significantly inhibited
